Earlier results on 1 substance are cited in US11872266B2, “Rapid-acting insulin compositions” (Eli Lilly and Company, priority 2014, dated 2024).

The conditions of the data set: on a molar basis.

“28^B-L-Lysine-29^B-L-proline human insulin [Insulin lispro]”: the “Potency relative to human insulin” value is reported as “equipotent to human insulin”.
